Consider 14 compounds from PMC10674617, “Design, Synthesis, Evaluation and Molecular Dynamics Simulation of Dengue Virus NS5-RdRp Inhibitors” (Pharmaceuticals, 2023).

SMILES strings stand for the structures. Values joined by “and” are separate entries in the source; they are usually repeats but may differ in a detail not shown here. Identical values can stand only once. Like-named read-outs stand apart in the source and are kept apart here.

For series [1], the target named is T1, DENV2 RdRp (Dengue virus type 2, UniProt P14340).
T1 construct: 100 nM of DENV2 full-length NS5 enzyme
Kind of series: DENV biochemical enzyme assay. The following applies: mean ± SD of two individual experiments. As to the method:
The inhibitory activities of compounds SW-b and SW-d against DENV-2 RdRp were assessed using in vitro enzyme inhibition assays. Compounds 3′-dATP, BCX4430, and NITD008 were used as controls. […] This confirmed the reliability of the DENV2 RdRp inhibitory activity assay.
Additionally, it contained 20 μM ATP, 20 μM GTP, 20 μM UTP, 5 μM ATTO-CTP, and 100 nM of DENV2 full-length NS5 enzyme. These were all suspended in a solution consisting of 50 mM Tris/HCl at pH 7.5, 10 mM KCl, 1 mM MgCl2, 0.3 mM MnCl2, 0.001% Triton-X-100, and 10 μM cysteine. Five compounds, with concentrations ranging from 0 to 20 or 100 μM, were serially diluted 2-fold into 384-well white opaque plates (Corning Costar, New York, NY, USA), resulting in a final volume of 5 μL. Subsequently, 5 μL of the enzyme in a 1× assay buffer was added to their respective wells. The plate was incubated at room temperature for 15 min, after which 5 μL of a mixture containing RNA and NTPs was introduced to initiate the reactions. After a reaction time of 120 min, the process was terminated by adding 10 μL of a 2.5× STOP buffer, comprising 200 mM NaCl, 25 mM MgCl2, and 1.5 M DEA adjusted to pH 10 using […]. Additionally, 25 nM of calf intestinal alkaline phosphatase (NEB) was introduced. The mixture was allowed to incubate at room temperature for an additional 60 min. To quantify the results, a Tecan Saffire II microplate reader was employed, with excitation max and emission max wavelengths set at 422 nm and 566 nm, respectively. All data points were analyzed in duplicate wells. Finally, the IC50 values were determined using a nonlinear regression curve fit for a sigmoidal dose–response (variable slope) in GraphPad Prism version 3.02 (GraphPad Prism, Inc., San Diego, CA).

Series [2] concerns DENV2 NGC strain. Kind of series: Cytopathic effect (CPE) inhibition assay. The conditions noted are these: for SI (Selectivity Index): ratio of CC50 to IC50; for IC50: BHK-21 cells, DENV2 NGC strain, mean ± SD of two individual experiments, read-out: DENV-NGC-IC50. Format: cell-based, Dengue virus (DENV2). How it is done:
The antiviral activities of the nine synthesized compounds against DENV were assessed using the DENV2 NGC strain and BHK-21 cells via CPE inhibition assays. BCX4430, NITD008, and 27 were used as positive controls (Figure S2). […] The activity of compound SW-d was higher than that of BCX4430 and lower than that of NITD008; however, its SI was higher than those of BCX4430 and NITD008.
In cell-based antiviral assays, the DENV2 NGC strain (Sino Biological Inc., Beijing, China) and BHK-21 cells (Baby hamster kidney cell line; ATCC CCL10) were used. The viral stock was prepared by inoculating C6/36 cells (Aedes albopictus clone C6/36; ATCC CRL166) as described previously. […] The supernatant was cleared by centrifugation at 2000 g for 5 min to remove cell debris and adjusted to 20% FBS. Aliquots of the virus were stored at […]. The 50% tissue culture infective dose (TCID50) was determined using the Promega Viral ToxGlo assay (Fisher Scientific, Ottawa, ON, Canada) in BHK-21 cells, according to the manufacturer’s instructions. Cell-based assays for the evaluation of antiviral activity against DENV were performed as described previously with modifications, using the Viral ToxGlo assay (Fisher Scientific, Ottawa, ON, Canada) according to the manufacturer’s instructions. Briefly, BHK-21 cells were plated in 96-well plates at 2500 cells/well in Dulbecco’s modified Eagle’s medium (DMEM) containing 10% FBS and 1% penicillin-streptomycin. Cells were incubated at 37 °C overnight and infected with 100 TCID50 of DENV for 90 min. The medium was replaced with DMEM containing 2.5% FBS and varying concentrations of the test compounds. Cell cultures were maintained at 37 °C in a 5% CO2 incubator for 3 days. The Viral Tox reagent was freshly prepared, and 100 μL of the reagent was added to each well. The plates were incubated for at least 10 min and then quantified using a 1450 MicroBeta TriLux microplate scintillation and luminescence counter (PerkinElmer, Waltham, MA, USA). For the off-target cytotoxicity assay, the test compounds were processed as described above, except without DENV infection of the cells. The luminescence readings were plotted against the log transformation of the concentration of the compound. Data were analyzed by nonlinear regression using GraphPad Prism 5.0 software (GraphPad Software, San Diego, CA, USA).

Series [3] can be described thus: Cytotoxicity assay. Format: cell-based. The conditions noted are these: dog.
Series [4] has as its system DENV RdRp. Also noted: method as in PMID 26984786, PMID 27500641. The following applies: against all clinically relevant dengue virus serotypes; cited from earlier work.
In series [5] the test system is MDCK cells. Kind of series: Cytotoxicity assay. Format: cell-based. The following applies: cytotoxicity, MDCK cells.
Where [6] appears, read: Dengue virus, DENV2, BHK-21, CPE inhibition.

For `Nc1ncnc2c1ncn2[C@@H]1O[C@H](COP(=O)(O)OP(=O)(O)OP(=O)(O)O)C[C@H]1O` [3′-dATP, reference compound], the midpoint of inhibition in series [1], the IC50, lay at 30.1 ± 8.26 µM.

With `Nc1ncnc2c([C@@H]3N[C@H](CO)[C@@H](O)[C@H]3O)c[nH]c12` [BCX4430, reference compound], the “SI (Selectivity Index)” value in series [2] was 2.40. The same compound came in with a CC50 at 3 days in series [3] of 100 µM.

Regarding `COc1cc(C)c(C(=O)NS(=O)(=O)c2cccc3cccnc23)cc1-c1ccc(C#CCO)s1` [Compound 27, reference compound], the figures for the IC50 in series [4] and in series [2] (setting [6]) were 0.013 to 0.074 µM and 19.7 ± 1.12 µM, respectively.

With `COc1cccc(S(=O)(=O)NC(=O)c2cc(-c3ccc(C#CCO)s3)c(OC)cc2OC)c1` [Compound 29], the IC50 in series [4] is 0.048 to 0.172 µM.

With `C#C[C@@]1(O)[C@H](O)[C@@H](CO)O[C@H]1n1ccc2c(N)ncnc21` [NITD008, reference compound], in series [2] (CPE inhibition), the IC50 is 41.6 µM and 15.5 µM. In addition, the midpoint of cytotoxicity in series [5], the CC50, lay at 20 µM.

In the case of `COc1cccc(C(=O)NS(=O)(=O)c2cc(-c3ccc(C#CCO)s3)c(OC)cc2C)c1` [SW-a], in series [2] (setting [6]), the IC50 came out at 57.6 ± 2.37 µM.

Consider `COc1cc(C)c(S(=O)(=O)NC(=O)C(C)Oc2ccc3c4c(c(=O)oc3c2)CCCC4)cc1-c1ccc(C#CCO)s1` (stereo not drawn) [SW-b], for which the IC50 in series [2] (setting [6]) stood at 3.58 ± 0.29 µM; in series [1] it was 11.5 ± 1.3 µM. In addition, the “SI (Selectivity Index)” value in series [2] came out at 6.89. Moreover, the 50% cytotoxic concentration (CC50) at 3 days in series [3] amounted to 24.7 µM.

On to `COc1cc(C)c(S(=O)(=O)NC(=O)c2ccc(-n3c(C)ccc3C)cc2)cc1-c1ccc(C#CCO)s1` [SW-c], for which, in series [2] (setting [6]), the IC50 is 41.5 ± 1.37 µM. Further, the CC50 at 3 days in series [3] was over 200 µM.

For `COc1cc(C)c(S(=O)(=O)NC(=O)c2ccc(C)c(Nc3nc(C)nc4c3CCC4)c2)cc1-c1ccc(C#CCO)s1` [SW-d], the IC50 in series [2] (setting [6]) is 23.9 ± 1 µM; in series [1], 13.5 ± 0.32 µM. In addition, the “SI (Selectivity Index)” value in series [2] is 5.58. Also, in series [3], it took 134 µM to reach half-maximal cytotoxicity (CC50 at 3 days).

Consider `COc1cc(C)c(S(=O)(=O)NC(=O)C2CC(=O)N(c3ccc(Cl)c(Cl)c3)C2)cc1-c1ccc(C#CCO)s1` (stereo not drawn) [SW-e], for which the IC50 in series [2] (setting [6]) was over 200 µM. Further, in series [3], the midpoint of cytotoxicity, the CC50 at 3 days, lay at 69.9 µM.

Take `COc1cc(C)c(S(=O)(=O)NC(=O)c2ccc3c(c2)C(=O)N(c2cccc(C)c2)C3=O)cc1-c1ccc(C#CCO)s1` [SW-f]: the IC50 in series [2] (setting [6]) is 53.8 ± 4.53 µM. In series [2], the “SI (Selectivity Index)” value is on record as over 3.72. In series [3], this compound registered a CC50 at 3 days of over 200 µM.

Turning to `COc1cc(C)c(S(=O)(=O)NC(=O)c2ccc(C)s2)cc1-c1ccc(C#CCO)s1` [SW-g], the IC50 in series [2] (setting [6]) is over 200 µM.

For the compound `COc1cc(C)c(S(=O)(=O)NC(=O)c2ccncn2)cc1-c1ccc(C#CCO)s1` [SW-h], the concentration for half-maximal inhibition (IC50) in series [2] (setting [6]) was over 200 µM.

Regarding `COc1cc(C)c(S(=O)(=O)NC(=O)Cn2nc(C)cc2C)cc1-c1ccc(C#CCO)s1` [SW-i], in series [2] (setting [6]), the IC50 is over 200 µM.
